# Patent US12161641B2, “Treatments and prevention of opioid neonatal abstinence syndrome” (Ohio State Innovation Foundation, priority 2016, dated 2024)
# How the values were obtained:
# [1] = Time-course of drug levels in adult and embryonic mouse plasma, brain and liver after a single subcutaneous injection (LC-MS/MS); conditions: for 6β-naltrexol level, Embryo Brain / 6β-naltrexol level, Embryo Liver: dam 10 mg/kg subcutaneously
# [2] = system: pre-weaning age mice; test: Naloxone-induced withdrawal jumping after morphine dosing in early postnatal mice; format: in vivo
# Procedure: Animals were injected with morphine alone or morphine mixed with increasing amounts of 6β-naltrexol. Injections were started on postnatal day 12 (PD12) and continued for 5 days. On days 1-3 morphine was injected at 10 mg/kg, and at 20 mg/kg on days 4 and 5. On day 6 (PD18) a final injection of 20 mg/kg was made, and 3 hours later mice were injected with 30 mg/kg naloxone to induce withdrawal. All injections were subcutaneous. When Morphine was co-injected with 6β-naltrexol the latter was held at a constant ratio when the Morphine dose was increased on days 4-6. Because of the changing Morphine dosages the 6β-naltrexol dose is reported as a ratio relative to Morphine, or as a dose range. Immediately upon injection with naloxone mice were placed in a clear plastic container with a 6 inch square base and 10 inches tall, with a lid. Withdrawal jumping was videotaped and jumps were scored in a 15 minute interval.
# Summary data are presented as means+1 SEM unless otherwise indicated Continuous data (drug concentrations) were analyzed using one-way ANOVA and post hoc comparisons were made using either Dunnett's procedure (for one-to-many comparisons) or t-tests (for all-pairs contrasts). In the latter case, p-values were adjusted for multiple comparisons using Hommel's method (Hommel, G. (1988) Biometrika 75:383-386). Data were log transformed to account for heteroscedasticity. When ratio values such as the brain/plasma ratio were compared, these were log-transformed before analysis to account for the constrained structure of ratio variables (e.g., Heslop, D. (2009) Geophys. J. Int. 178:159-161; Schilling K, et al. (2012) J Neurosci. 32:12651-12656). The dependence of jumping behavior on 6β-naltrexol levels was modelled using a 4-parametric log-normal curve taking into account that the response was a count variable. AUCs were integrated over the time span analyzed (i.e., from 0 to 240 min; Wolfsegger, M J, et al. (2009) J Pharmacokinet Pharmacodyn 36:479-494). Confidence intervals for AUCs were obtained by bootstrapping, as recommended in Jaki & Wolfsegger (Jaki, T, et al (2009) Pharmaceutical Statistics 8:12-24). All statistical procedures were implemented in R (R Core Team, 2015), using the packages multcomp (Hothorn, T, et al. (2008) Biometrical Journal 50:346-363) for multiple comparisons, PK (Jaki, T, et al. (2011) Pharmaceutical Statistics 10:284-288) for pharmacokinetic analyses, and drc (Ritz, C, et al. (2005) Bioassay analysis using R. J. Stat. Softw. 12:22) for dose-response fitting.
# Considering that 6β-naltrexol continues to penetrate the brain at high levels prior to PD20 experiments were conducted to determine whether concomitant administration of 6β-naltrexol reduces withdrawal behaviors in pre-weaning age mice. A morphine dosing schedule was adapted based on studies in early postnatal rats and adult mice (Kest B. et al. (2002) Neuroscience 115:463-469; Jones, K L, et al. (1995) Behav. Neurosci. 109:1189-1198). Mice were injected with morphine alone, with morphine in combination with increasing concentrations of 6β-naltrexol, or saline alone, starting at P12 and continuing for 6 days. Withdrawal was then induced with an injection of naloxone. There was robust jumping characteristic of adult withdrawal behavior (Kest B, et al. (2002) Neuroscience 115.463-469), but not previously reported for pre-weaning mice or rats to our knowledge. […] At the highest dose tested, 0.5-1.0 mg/kg (= 1/20th that of morphine), withdrawal jumping is 94% reduced. The lowest 6β-naltrexol dose tested, 0.0033-0.0066 mg/kg (= 1/3000th that of morphine) caused a 20% decrease in jumping. There is also a time component to the effect of 6β-naltrexol on jumping behavior (FIG. 3B). As 6β-naltrexol levels were increased the jumps observed in a 15 minute testing bout were increasingly delayed. […]
# [3] = 20 min survival, 10 mg/kg subcutaneously
# [4] = 45 min survival, 10 mg/kg subcutaneously
# [5] = 2 hrs survival, 10 mg/kg subcutaneously
# [6] = 4 hrs survival, 10 mg/kg subcutaneously
# [7] = non-compartmental, 0 to 240 min, 10 mg/kg subcutaneously
structure (smiles),measurement,setting,value
Oc1ccc2c3c1O[C@H]1[C@H](O)CC[C@@]4(O)[C@@H](C2)N(CC2CC2)CC[C@]314 [6β-naltrexol],fetal brain KP ratio,[1]; 20 min after injection,not significantly different from unity
same,adult brain KP ratio (brain:plasma),[1]; 20 min survival,0.13
same,fetal brain:maternal plasma KP ratio,[1]; 45 min after drug injection,2.7
same,adult brain KP ratio (brain:plasma),[1]; 45 minutes survival,0.34
same,fetal brain:maternal plasma KP ratio,[1]; 120 min after injection,15.7
same,brain KP ratio based on AUC's (adult),[1]; AUC's integrated over 4 hrs,0.58
same,"KP ratio based on AUC's, adult liver",[1]; AUC-based,2.6
same,"KP ratio based on AUC's, fetal liver",[1]; AUC-based,4.3
same,fetal brain KP ratio based on non-compartmental AUC's,[1]; AUC-based,3.6
same,"6β-naltrexol level, Adult Brain",[1]; [3],260 ng/g
same,"6β-naltrexol level, Adult Brain",[1]; [4],310 ng/g
same,"6β-naltrexol level, Adult Brain",[1]; [5],230 ng/g
same,"6β-naltrexol level, Adult Brain",[1]; [6],110 ng/g
same,"6β-naltrexol level, Adult Liver",[1]; [3],3570 ng/g
same,"6β-naltrexol level, Adult Liver",[1]; [4],3200 ng/g
same,"6β-naltrexol level, Adult Liver",[1]; [5],530 ng/g
same,"6β-naltrexol level, Adult Liver",[1]; [6],280 ng/g
same,"embryonic brain levels higher than in adult brain, at peak","[1]; at peak, 10 mg/kg subcutaneously",~9 fold
same,"6β-naltrexol level, Embryo Brain",[1]; 20 min survival,1350 ng/g
same,"6β-naltrexol level, Embryo Brain",[1]; 45 min survival,2780 ng/g
same,"6β-naltrexol level, Embryo Brain",[1]; 2 hrs survival,1370 ng/g
same,"6β-naltrexol level, Embryo Brain",[1]; 4 hrs survival,210 ng/g
same,"6β-naltrexol level, Embryo Liver",[1]; 20 min survival,2970 ng/g
same,"6β-naltrexol level, Embryo Liver",[1]; 45 min survival,4400 ng/g
same,"6β-naltrexol level, Embryo Liver",[1]; 2 hrs survival,1040 ng/g
same,"6β-naltrexol level, Embryo Liver",[1]; 4 hrs survival,250 ng/g
same,AUC for embryonic brain greater than that of adult brain,"[1]; non-compartmental, 0 to 240 min",6 fold
same,"area under the curve (AUC), (maternal) plasma",[1]; [7],83+6×10^3 ng/ml-min
same,"area under the curve (AUC), adult brain",[1]; [7],49+2×10^3 ng/ml-min
same,"area under the curve (AUC), adult liver",[1]; [7],274+36×10^3 ng/ml-min
same,"area under the curve (AUC), embryonic (fetal) brain",[1]; [7],302+60×10^3 ng/ml-min
same,"area under the curve (AUC), embryonic liver",[1]; [7],373+84
same,"6β-naltrexol level, Plasma",[1]; [3],2060 ng/g
same,"6β-naltrexol level, Plasma",[1]; [4],930 ng/g
same,"6β-naltrexol level, Plasma",[1]; [5],90 ng/g
same,"6β-naltrexol level, Plasma",[1]; [6],40 ng/g
same,total jumps in the first three time bins (up to 4.5 mins),"[2]; 0.0033 mg/kg, 73+28 with no 6β-naltrexol, p=0.07",37+29 jumps
same,latency-to-first-jump,[2]; 0.01-0.02 mg/kg (1/1000th the dose of morphine),118+31 sec
same,latency-to-first-jump,[2]; 0.05-0.1 mg/kg (1/200th the dose of morphine),163+46 sec
same,Survival,[2]; all conditions and all animals tested by this procedure,100%
same,"inhibitory dose 50 (ID50), withdrawal jumping","[2]; co-injected with morphine 10-20 mg/kg s.c. PD12-PD18, naloxone 30 mg/kg, jumps in 15 minutes",0.022 to 0.044 mg/kg
same,withdrawal jumping reduced,"[2]; highest dose tested, 0.5-1.0 mg/kg (1/20th that of morphine)",94%
same,latency-to-first-jump,"[2]; lowest dose (1/3000th the dose of morphine), 38+8 sec with no 6β-naltrexol",128+44 sec
same,decrease in jumping,"[2]; lowest dose tested, 0.0033-0.0066 mg/kg (1/3000th that of morphine)",20%
same,ID50 dose lower than the morphine dose used for inducing dependence,"[2]; mouse, in vivo",~500 fold
same,ID50 relative to the morphine dose,[2]; ratio of 6β-naltrexol to morphine,1/450
